# Several values for one entry are separate records, joined by “and”; a condition that tells them apart may be missing. Equal values may be shown once.
# Test system: mice, CFA model of inflammatory pain
# Experiment: Single exposure place preference (sePP), CFA mice
# Type: in vivo, mouse
# Design: time spent in the paired compartment, individual mice: reference not given here
# Method: On days 6-8, the escape hole was moved
# 90 degrees, and all mice went through the second bout of training. On day nine, a second probe trial was performed testing the reversal learning of the mice.
# Cancer induced bone pain was induced as described in the “Induction of cancer induced bone pain (CIBP model)"-section. For the assessment of limb use, all mice from one cage were placed in an empty transparent plastic box and left for ten min to habituate. One mouse at a time was moved by tunnel handling or scooping to an identical plastic box for the limb use test. […]
# gait, 3 Insignificant limping, 2 Significant limping and shift in bodyweight towards the healthy limb 1 Significant limping and partial lack of use of ipsilateral leg 0 Total lack of use of ipsilateral leg. A score of 0 was used as a humane endpoint. Urine and faeces were cleaned from the plastic box with a dry paper towel between mice from the same cage, and a new plastic box was used for mice from different cages. The limb use test was video filmed for later […]
# Assessment of static weight bearing. […]
# Initial perception of the drugs was measured by single exposure place preference experiments performed in an elongated three compartment apparatus (67.5 cm x 24 cm) with a biased design of different floor textures and wall patterns and a neutral zone in the middle. […]
structure (smiles),measurement,setting,value
"CCCCCCCCCCCCCC(=O)N(CCOCCOCCC(=O)N[C@@H](Cc1c[nH]cn1)C(=O)N[C@@H](Cc1c[nH]c2ccccc12)C(=O)N[C@@H](CC(C)C)C(=O)N[C@@H](CCCCN)C(=O)N[C@H](C(=O)O)C(C)C)CCOCCOCCC(=O)N[C@@H](Cc1c[nH]cn1)C(=O)N[C@@H](Cc1c[nH]c2ccccc12)C(=O)N[C@@H](CC(C)C)C(=O)N[C@@H](CCCCN)C(=O)N[C@H](C(=O)O)C(C)C [mPD5, myristoyl-NPEG4-(HWLKV)2]",time in the paired compartment compared with the PBS animals (sePP),"CFA animals, s.c. 30 μmol/kg in the gray (paired) compartment",significantly more time in the paired compartment
same,"time spent in the paired compartment, individual mice",CFA mice conditioned with 30 μmol/kg,1.043 and 0.9432 and 1.1179 and 0.8953 and 1.389 and 1.4664 and 0.991 and 1.199 and 1.802 and 0.8487 and 1.092 and 1.425

# — PMC11530130, “Peripherally restricted PICK1 inhibitor mPD5 ameliorates pain behaviors in murine inflammatory and neuropathic pain models” (JCI Insight, 2024)
